Data taken from ChEMBL document CHEMBL2406945, “Integrated Synthesis and Testing of Substituted Xanthine Based DPP4 Inhibitors: Application to Drug Discovery” (ACS Med Chem Lett, 2013).

Columns and labels:
[1] = biological target: Dipeptidyl peptidase 4 (Sus scrofa) (UniProt P22411); experiment: Inhibition of porcine DPP4 assessed as residual enzyme activity using H-Gly-Pro-AMC as substrate by fluorescence assay
[2] = biological target: T1, Dipeptidyl peptidase 4 (Sus scrofa, UniProt P22411); experiment: Inhibition of porcine DPP4 using H-Gly-Pro-AMC as substrate by fluorescence assay
T1 sequence (P22411 whole entry): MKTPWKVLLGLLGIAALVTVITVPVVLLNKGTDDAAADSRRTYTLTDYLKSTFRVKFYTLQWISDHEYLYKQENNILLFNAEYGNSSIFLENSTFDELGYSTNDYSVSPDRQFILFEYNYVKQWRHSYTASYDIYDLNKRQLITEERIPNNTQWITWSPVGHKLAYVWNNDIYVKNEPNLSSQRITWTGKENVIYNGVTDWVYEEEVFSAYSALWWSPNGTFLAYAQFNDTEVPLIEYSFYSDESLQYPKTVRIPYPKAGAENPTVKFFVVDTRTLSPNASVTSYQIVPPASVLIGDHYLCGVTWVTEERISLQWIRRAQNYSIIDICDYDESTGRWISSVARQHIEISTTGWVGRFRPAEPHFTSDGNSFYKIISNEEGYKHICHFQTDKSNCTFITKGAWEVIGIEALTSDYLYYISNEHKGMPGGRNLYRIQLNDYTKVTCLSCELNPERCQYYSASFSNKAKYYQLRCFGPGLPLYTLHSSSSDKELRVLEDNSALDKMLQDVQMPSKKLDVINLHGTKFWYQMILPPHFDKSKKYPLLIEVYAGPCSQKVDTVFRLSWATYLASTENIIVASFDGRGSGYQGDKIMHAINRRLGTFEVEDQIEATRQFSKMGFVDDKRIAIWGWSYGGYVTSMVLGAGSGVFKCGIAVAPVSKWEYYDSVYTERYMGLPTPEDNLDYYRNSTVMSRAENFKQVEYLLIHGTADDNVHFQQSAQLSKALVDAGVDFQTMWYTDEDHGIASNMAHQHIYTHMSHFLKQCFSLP

[3] = biological target: T1, Dipeptidyl peptidase 4; experiment: Inhibition of porcine DPP4
[4] = biological target: Dipeptidyl peptidase 4 (Homo sapiens, UniProt P27487); experiment: Inhibition of human DPP4 using H-Gly-Pro-AMC as substrate by fluorescence assay
Sequence of Dipeptidyl peptidase 4 (Homo sapiens, UniProt P27487) (P27487 whole entry): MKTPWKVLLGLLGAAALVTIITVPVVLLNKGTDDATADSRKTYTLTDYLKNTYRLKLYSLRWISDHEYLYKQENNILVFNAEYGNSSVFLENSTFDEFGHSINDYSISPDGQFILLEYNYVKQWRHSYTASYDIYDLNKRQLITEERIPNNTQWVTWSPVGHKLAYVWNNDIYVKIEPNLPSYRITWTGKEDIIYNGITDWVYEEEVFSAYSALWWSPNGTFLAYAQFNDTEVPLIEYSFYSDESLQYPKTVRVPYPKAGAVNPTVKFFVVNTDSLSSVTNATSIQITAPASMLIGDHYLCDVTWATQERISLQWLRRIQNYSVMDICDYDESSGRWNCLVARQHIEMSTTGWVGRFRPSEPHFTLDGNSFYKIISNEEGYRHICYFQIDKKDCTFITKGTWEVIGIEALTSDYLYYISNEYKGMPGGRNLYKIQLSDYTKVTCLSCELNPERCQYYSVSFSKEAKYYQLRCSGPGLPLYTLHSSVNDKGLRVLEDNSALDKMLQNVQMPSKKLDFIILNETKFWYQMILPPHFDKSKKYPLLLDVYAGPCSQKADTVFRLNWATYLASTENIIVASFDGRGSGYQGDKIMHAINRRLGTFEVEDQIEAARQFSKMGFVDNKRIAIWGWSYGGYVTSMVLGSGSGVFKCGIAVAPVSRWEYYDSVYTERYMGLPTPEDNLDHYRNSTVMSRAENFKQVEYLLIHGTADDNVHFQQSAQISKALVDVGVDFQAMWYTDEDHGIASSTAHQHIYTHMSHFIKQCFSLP

Sequence of Dipeptidyl peptidase 4 (Sus scrofa) (P22411 whole entry, looked up): as the sequence (P22411 whole entry) above

SMILES	Activity [1]	IC50 [2]	IC50 [3]	IC50 [4]
CC(C)=CCn1c(OCC(C)(C)CN)nc2c1c(=O)n(C)c(=O)n2C	260 nM			
CC(C)=CCn1c(N2CCC[C@@H](N)C2)nc2c1c(=O)n(C)c(=O)n2C	11 nM			
CC(C)=CCn1c(OC[C@@H](N)Cc2ccccc2)nc2c1c(=O)n(C)c(=O)n2C	430 nM			
CC(C)=CCn1c(OC[C@H]2CCCN2)nc2c1c(=O)n(C)c(=O)n2C	> 7000 nM			
CC(C)=CCn1c(OC[C@@H]2CCCN2)nc2c1c(=O)n(C)c(=O)n2C	1600 nM			
CC(C)=CCn1c(O[C@@H]2CCNC2)nc2c1c(=O)n(C)c(=O)n2C	> 7000 nM			
CC(C)=CCn1c(OC[C@H](C)N)nc2c1c(=O)n(C)c(=O)n2C	780 nM			
CC(C)=CCn1c(N2CC3CCNC3C2)nc2c1c(=O)n(C)c(=O)n2C (configuration not stated)	6000 nM			
CC(C)=CCn1c(N2CC3CCCNC3C2)nc2c1c(=O)n(C)c(=O)n2C (configuration not stated)	> 24500 nM			
CC(C)=CCn1c(N2CCNCC2)nc2c1c(=O)n(CC(=O)c1ccccc1)c(=O)n2C	11 nM			
CC(C)=CCn1c(N2CCC[C@H](N)C2)nc2c1c(=O)n(C)c(=O)n2C	6 nM			
CC(C)=CCn1c(N2CCC3CNCC32)nc2c1c(=O)n(C)c(=O)n2C (configuration not stated)	132 nM	130 nM	210 nM	
CC(C)=CCn1c(N2CC3CCCNC3C2)nc2c1c(=O)n(CC(=O)c1ccccc1)c(=O)n2C (configuration not stated)	269 nM			
CC(C)=CCn1c(OC2CCNCC2)nc2c1c(=O)n(C)c(=O)n2C	> 5000 nM			
CC(C)=CCn1c(O[C@H]2CCNC2)nc2c1c(=O)n(C)c(=O)n2C	> 8000 nM			
CC(C)=CCn1c(N2CCNCC2)nc2c1c(=O)n(C)c(=O)n2C	173 nM			

Now from value to molecule:

Activity [1]	IC50 [2]	IC50 [3]	IC50 [4]	SMILES
4 nM				CC(C)=CCn1c(N2CCC[C@H](N)C2)nc2c1c(=O)n(CC(=O)c1ccccc1)c(=O)n2C
0.7 nM	0.73 nM	< 40 nM		CC(C)=CCn1c(N2CCC[C@@H](N)C2)nc2c1c(=O)n(CC(=O)c1ccccc1)c(=O)n2C
420 nM				CC(C)=CCn1c(O[C@@H](C)CN)nc2c1c(=O)n(CC(=O)c1ccccc1)c(=O)n2C
22 nM				CC(C)=CCn1c(OCCCN)nc2c1c(=O)n(CC(=O)c1ccccc1)c(=O)n2C
2.6 nM	16 nM	17 nM		CC(C)=CCn1c(OC[C@@H]2CCCN2)nc2c1c(=O)n(CC(=O)c1ccccc1)c(=O)n2C
6 nM	6.5 nM	9 nM		CC(C)=CCn1c(OCC(C)(C)CN)nc2c1c(=O)n(CC(=O)c1ccccc1)c(=O)n2C
275 nM	275 nM	1100 nM	> 1000 nM	CC(C)=CCn1c(OC2CCNCC2)nc2c1c(=O)n(CC(=O)c1ccccc1)c(=O)n2C
580 nM	705 nM	2500 nM		CC(C)=CCn1c(OC[C@H]2CCCN2)nc2c1c(=O)n(CC(=O)c1ccccc1)c(=O)n2C
